What was measured:
[1] = cited from earlier work
[2] = cited from earlier work; remark: listed apart in the source
[3] = target: human UNG (Homo sapiens, UniProt P13051); format: biochemical
Sequence of human UNG (P13051 whole entry): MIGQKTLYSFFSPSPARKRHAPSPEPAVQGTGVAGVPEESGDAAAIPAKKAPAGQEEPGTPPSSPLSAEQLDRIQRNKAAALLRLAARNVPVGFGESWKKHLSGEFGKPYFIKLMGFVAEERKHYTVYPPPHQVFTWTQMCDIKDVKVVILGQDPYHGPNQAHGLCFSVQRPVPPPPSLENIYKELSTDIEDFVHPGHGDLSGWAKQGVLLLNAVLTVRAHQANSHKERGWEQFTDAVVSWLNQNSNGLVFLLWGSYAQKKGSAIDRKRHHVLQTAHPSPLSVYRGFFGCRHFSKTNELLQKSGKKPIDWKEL

For `C=CC[C@@H]1/C=C(\C)C[C@H](C)C[C@H](OC)[C@H]2O[C@@](O)(C(=O)C(=O)N3CCCC[C@H]3C(=O)O[C@H](/C(C)=C/[C@@H]3CC[C@@H](O)[C@H](OC)C3)[C@H](C)[C@@H](O)CC1=O)[C@H](C)C[C@@H]2OC` [FK506], the “binds less tightly than expected from summing the binding free energies of its component fragments” value [1] is listed as “about 3 kcal/mol”.
For `CNCc1ccccc1` [N-methyl-benzyl amine], the pKa [2] is listed as 9.8.
In the case of `O=C(O)c1cccc(/C=N/OCCCNCc2cc(=O)[nH]c(=O)[nH]2)c1` [compound 6], the “free energy change more negative than DO” value ([3]; MA1 compared with DO) is reported as -2.0 kcal/mol.
For `O=C(O)c1cccc(CNCCCO/N=C/c2cc(=O)[nH]c(=O)[nH]2)c1` [compound 22], the “ΔΔG of binding on switching amine to oxime linkages” value ([3]; difference free energies relative to DA (27), Figure 4) was -0.6 kcal/mol.

Reference: publication PMC3178264 (Nature chemical biology, 2009)
